Laboratory results from the NIST ThermoML archive (doi:10.1016/j.jct.2019.05.021).

Columns and labels:
[1] = xn = mol fraction of the nth substance listed; settings: 100 kPa, Liquid, x1 = 1; for viscosity: Falling or rolling sphere viscometry; for mass density: Vibrating tube method
[2] = 100 kPa, Liquid; for viscosity: Falling or rolling sphere viscometry; for mass density: Vibrating tube method

CC1CCCCC1 [methylcyclohexane] + CCCCCCCCCCCC(=O)OC
[1]
Settings | mass density [kg/m3] | viscosity [mPa·s]
293.15 K | 769.38 | 0.733
298.15 K | 765.06 | 0.681
303.15 K | 760.71 | 0.638
308.15 K | 756.35 | 0.599
313.15 K | 751.98 | 0.563
318.15 K | 747.59 | 0.533
323.15 K | 743.19 | 0.505

CCCCCCCCCCCCCC(=O)OC [methyl tetradecanoate]
[2]
Settings | mass density [kg/m3] | viscosity [mPa·s]
293.15 K | 867.17 | 4.557
298.15 K | 863.35 | 3.979
303.15 K | 859.54 | 3.519
308.15 K | 855.74 | 3.093
313.15 K | 851.94 | 2.797
318.15 K | 848.14 | 2.544
323.15 K | 844.34 | 2.308

CC1CCCCC1 [methylcyclohexane]
[2]
Settings | mass density [kg/m3] | viscosity [mPa·s]
293.15 K | 769.38 | 0.733
298.15 K | 765.06 | 0.681
303.15 K | 760.71 | 0.638
308.15 K | 756.35 | 0.599
313.15 K | 751.98 | 0.563
318.15 K | 747.59 | 0.533
323.15 K | 743.19 | 0.505

CC1CCCCC1 [methylcyclohexane] + CCCCCCCCCCCCCC(=O)OC
[1]
Settings | mass density [kg/m3] | viscosity [mPa·s]
293.15 K | 769.38 | 0.733
298.15 K | 765.06 | 0.681
303.15 K | 760.71 | 0.638
308.15 K | 756.35 | 0.599
313.15 K | 751.98 | 0.563
318.15 K | 747.59 | 0.533
323.15 K | 743.19 | 0.505

CCCCCCCCCCCC(=O)OC [methyl dodecanoate]
[2]
Settings | mass density [kg/m3] | viscosity [mPa·s]
293.15 K | 869.3 | 3.151
298.15 K | 865.39 | 2.792
303.15 K | 861.46 | 2.504
308.15 K | 857.53 | 2.263
313.15 K | 853.61 | 2.049
318.15 K | 849.69 | 1.875
323.15 K | 845.76 | 1.729

CCCCCCCCCC(=O)OC [methyl decanoate]
[2]
Settings | mass density [kg/m3] | viscosity [mPa·s]
293.15 K | 872.25 | 2.125
298.15 K | 868.16 | 1.909
303.15 K | 864.06 | 1.738
308.15 K | 859.96 | 1.588
313.15 K | 855.85 | 1.453
318.15 K | 851.74 | 1.341
323.15 K | 847.62 | 1.245

CC1CCCCC1 [methylcyclohexane] + CCCCCCCCCC(=O)OC
[1]
Settings | mass density [kg/m3] | viscosity [mPa·s]
293.15 K | 769.38 | 0.733
298.15 K | 765.06 | 0.681
303.15 K | 760.71 | 0.638
308.15 K | 756.35 | 0.599
313.15 K | 751.98 | 0.563
318.15 K | 747.59 | 0.533
323.15 K | 743.19 | 0.505
